# In patent publication US7049341B2, “N-benzoylureidocinnamic acid derivatives, processes for preparing them and their use” (Aventis Pharma Deutschland GmbH, priority 2002, dated 2006):
# Biological target: T1, Human glycogen phosphorylase a (Homo sapiens, UniProt P06737)
# T1 sequence (P06737 1-847): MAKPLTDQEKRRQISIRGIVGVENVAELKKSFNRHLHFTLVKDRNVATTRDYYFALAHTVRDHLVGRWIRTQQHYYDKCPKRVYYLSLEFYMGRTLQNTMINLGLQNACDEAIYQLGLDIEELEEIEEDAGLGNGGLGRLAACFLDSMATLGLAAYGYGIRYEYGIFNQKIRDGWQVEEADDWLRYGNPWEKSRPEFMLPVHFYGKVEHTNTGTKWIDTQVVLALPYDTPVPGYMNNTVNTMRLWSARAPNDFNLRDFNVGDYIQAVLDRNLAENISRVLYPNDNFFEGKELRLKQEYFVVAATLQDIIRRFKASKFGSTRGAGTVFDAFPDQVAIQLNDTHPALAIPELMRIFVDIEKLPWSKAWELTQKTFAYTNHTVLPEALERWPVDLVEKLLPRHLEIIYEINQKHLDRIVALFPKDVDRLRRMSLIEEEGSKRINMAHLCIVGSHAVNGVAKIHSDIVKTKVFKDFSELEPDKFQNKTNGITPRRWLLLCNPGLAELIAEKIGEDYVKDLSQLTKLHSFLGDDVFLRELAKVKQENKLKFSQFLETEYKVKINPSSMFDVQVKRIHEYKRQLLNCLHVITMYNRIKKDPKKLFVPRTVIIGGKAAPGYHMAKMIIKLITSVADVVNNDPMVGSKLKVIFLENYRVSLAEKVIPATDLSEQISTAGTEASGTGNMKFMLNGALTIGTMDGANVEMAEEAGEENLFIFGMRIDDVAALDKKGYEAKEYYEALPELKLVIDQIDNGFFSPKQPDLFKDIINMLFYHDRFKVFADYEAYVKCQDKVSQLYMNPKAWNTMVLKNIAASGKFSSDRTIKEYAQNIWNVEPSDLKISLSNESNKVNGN
# Assay: Glycogen phosphorylase a activity test (reverse direction, release of inorganic phosphate)
# Assay type: biochemical
# Details: 10 μM concentration of the test substance; in vitro, duplicate determinations
# Protocol: Glycogen Phosphorylase a Activity Test
# The effect of compounds on the activity of the active form of glycogen phosphorylase (GPa) was measured in the reverse direction by monitoring the synthesis of glycogen from glucose 1-phosphate by determining the release of inorganic phosphate. All the reactions were carried out as duplicate determinations in 96-well microtiter plates (Half Area Plates, Costar No. 3696), with the change in absorption due to the formation of the reaction product being measured, at the wavelength specified below, in a Multiscan Ascent Elisa Reader (Lab Systems, Finland). In order to measure the enzymic activity of GPa in the reverse direction, the conversion of glucose 1-phosphate into glycogen and inorganic phosphate was measured in accordance with the general method of Engers et al. (Engers H D, Shechosky S, Madsen N B, Can J Biochem 1970 July;48(7): 746–754) but with the following modifications: Human glycogen phosphorylase a (for example containing 0.76 mg of protein/ml (Aventis Pharma Deutschland GmbH), dissolved in buffer solution E (25 mM β-glycerophosphate, pH 7.0, 1 mM EDTA and 1 mM dithiothreitol), was diluted with buffer T (50 mM Hepes, pH 7.0, 100 mM KCl, 2.5 mM EDTA, 2.5 mM MgCl2.6H2O), and addition of 5 mg of glycogen/ml, to a concentration of 10 μg of protein/ml. Test substances were prepared as a 10 mM solution in DMSO and diluted down to 50 μM with buffer solution T. 10 μl of 37.5 mM glucose, dissolved in buffer solution T and 5 mg/ml of glycogen, and also 10 μl of a solution of human glycogen phosphorylase a (10 μg of protein/ml) and 20 μl of glucose 1-phosphate, 2.5 mM, were added to […] of the solution. The basal value of the activity of the glycogen phosphorylase a in the absence of test substance was determined by adding 10 μl of buffer solution T (0.1% DMSO). The mixture was incubated at room temperature for 40 minutes and the inorganic phosphate which was released was measured using the general method of Drueckes et al. (Drueckes P, Schinzel R, Palm D, Anal Biochem 1995 Sep. 1;230(1):173–177) but with the following modifications: 50 μl of a stop solution of 7.3 mM ammonium molybdate, 10.9 mM zinc acetate, 3.6% ascorbic acid, 0.9% SDS are added to 50 μl of the enzyme mixture. After 60 minutes of incubation at 45° C., the absorption was measured at 820 nm. In order to determine the background absorption, the stop solution was added immediately after adding the glucose 1-phosphate solution in a separate assay. This test was carried out using a 10 μM concentration of the test substance in order to determine the respective inhibition of glycogen phosphorylase a by the test substance in vitro.
row,Structure (SMILES),inhibition at 10 µM
1,"COC(=O)C=Cc1cc(C(=O)OC)ccc1NC(=O)NC(=O)c1cc(F)c(F)cc1Cl [Example 11, Methyl 4-[3-(2-chloro-4,5-difluorobenzoyl)ureido]-3-(2-methoxycarbonylvinyl)benzoate]",91%
2,"CC(=O)Nc1ccc(C=CC(=O)O)c(NC(=O)NC(=O)c2cc(F)c(F)cc2Cl)c1 [Example 3, 3-{4-Acetylamino-2-[3-(2-chloro-4,5-difluorobenzoyl)ureido]phenyl}acrylic acid]",95%
3,"COC(=O)C=Cc1cc(C(=O)O)ccc1NC(=O)NC(=O)c1cc(F)c(F)cc1Cl [Example 7, 4-[3-(2-chloro-4,5-difluorobenzoyl)ureido]-3-(2-methoxycarbonylvinyl)benzoic acid]",96%
4,"O=C(O)C=Cc1ccccc1NC(=O)NC(=O)c1cc(F)c(F)cc1Cl [Example 2, 3-{2-[3-(2-chloro-4,5-difluorobenzoyl)ureido]phenyl}acrylic acid]",101%
